Data: paper PMC7179198, “Chiral Pyridine-3,5-bis- (L-phenylalaninyl-L-leucinyl) Schiff Base Peptides as Potential Anticancer Agents: Design, Synthesis, and Molecular Docking Studies Targeting Lactate Dehydrogenase-A” (Molecules, 2020)

Columns and labels:
MCF-7 xenografts = assay: In vivo human breast cancer xenograft; design: species or system nude mice; settings: MCF-7 xenograft, eight days of treatment
From the text: In this section, we developed a breast cancer animal xenograft model for the evaluation of thein vivo anticancer potential of our newly prepared compounds. […] After wards, the noticeable effects were more or less constant up to 14 days of treatment. […] Our results are in good agreement with those previously published on the in vivo anticancer potential of Schiff bases owing to apoptosis induction.
The breast cancer xenograft model protocol was approved by the Institutional Animal Use and Care Committee of the University of Alabama at Birmingham (50-01-05-08B). Female athymic pathogen-free nude mice (nu/nu, 4–6 weeks) were used. Firstly, MCF-7 xenografts were initiated by implanting pellets slowly releasing estrogen for two months (1.7mg 17β-estradiol/pellet) subcutaneously in the female nude mice. After 24 h, confluent MCF-7 cells were harvested, washed two times with serum-free medium, re-suspended, and injected subcutaneously (s.c.) (5 × 10^6 cells, total volume 0.2 mL) into the left inguinal area of the mice. Caliper measurement was used to measure tumor growth in two perpendicular diameters of the implant after 48 h, and its volume was determined. Mice grafted with MCF-7 were divided into different groups (7–10 mice/group). Untreated mice received the solvent only. Treated groups received different prepared derivatives as previously described.

[1] = target: T1, recombinant human LDHA protein (Homo sapiens, UniProt P00338); assay: LDHA inhibition assay (colorimetric NADH kit); format: biochemical
T1 construct: purchased Abcam ab93699
Experimental: The newly synthesized compounds 4–6 were evaluated for their ability to inhibit LDHA in comparison with galloflavin as a known isoform nonselective LDHA inhibitor [44, 45]. The choice of galloflavin as a reference was based on the fact that it is potent anticancer agent and commercially available.
Lactate dehydrogenase assay kit (Abcam, ab102526) and recombinant human LDHA protein (Abcam, ab93699) were used to assess the inhibitory effect of the tested compounds. First, we generated an NADH standard curve for colorimetric detection by measuring the OD (450 nm) at different molar amounts of NADH. The linear regression equation of the curve was derivatized in Graphpad Prism. Tested compounds were dissolved in DMSO and their inhibitory activity was assessed at 140 and 300 μM strength. Galloflavin (Sigma, SML0776) at the same molar concentration was used as a known LDH inhibitor. The master reaction mix composed of LDH assay buffer and 10 ng human LDHA […] per reaction was prepared. Tested compounds were added and the final reaction volume was adjusted to 50 μL. Absorbance at 450 nm was taken after 2–3 min (T-initial) and continued every minute for 118 min (T-final). The change in measurement over time (delta A450) was calculated as T-final minus T-initial. The amount of NADH generated by the assay between T-initial and T-final was deduced by comparing the A450 of each sample to the standard NADH standard curve. LDHA activity was calculated in milliunits per mL as the amount of NADH generated by the assay / (reaction time in minutes (118) x reaction volume in mL ([…]).

CC(=NNC(=O)C(CC(C)C)NC(=O)C(Cc1ccccc1)NC(=O)c1cncc(C(=O)NC(Cc2ccccc2)C(=O)NC(CC(C)C)C(=O)NN=C(C)c2ccc([N+](=O)[O-])cc2)c1)c1ccc([N+](=O)[O-])cc1 (stereo not drawn) [5e, N^3,N^5-Bis{1-[(4-methyl-1-(2-(1-(4-nitrophenyl)ethylidene)hydrazinyl)-1-oxopentan-2-yl)-amino]-1-oxo-3-phenylpropan-2-yl}pyridine-3,5-dicarboxamide]
decrease in tumor growth (MCF-7 xenografts): 74.2%
IC50 ([1]; recombinant human LDHA): 141.6 ± 0.98 µM
fold increase in LDHA inhibitory activity compared with galloflavin ([1]; vs galloflavin): ~1.14 fold
